According to ChEMBL document CHEMBL3045470, “Effect of 2-allylphenol against Botrytis cinerea Pers., and its residue in tomato fruit” (Crop Prot, 2007):
In brackets after ≈: the same amount, converted by molar mass.

Key:
Format in all cases: functional, organism-based
[1] = system: Fulvia fulva; test: Antifungal activity against Passalora fulva incubated as 10% EC formulation
[2] = system: Botrytis cinerea; test: Antifungal activity against Botryotinia fuckeliana incubated as 10% EC formulation
[3] = system: Alternaria solani; test: Antifungal activity against Alternaria solani incubated as 10% EC formulation
[4] = system: Fulvia fulva; test: Antifungal activity against Passalora fulva incubated as 50% WP formulation
[5] = system: Alternaria solani; test: Antifungal activity against Alternaria solani incubated as 50% WP formulation
[6] = system: Botrytis cinerea; test: Antifungal activity against Botryotinia fuckeliana incubated as 50% WP formulation

| SMILES | EC50 [1] [µg/mL] | EC50 [2] [µg/mL] | EC50 [3] [µg/mL] | EC50 [4] [µg/mL] | EC50 [5] [µg/mL] | EC50 [6] [µg/mL] |
| --- | --- | --- | --- | --- | --- | --- |
| C=CCc1ccccc1O [2-ALLYLPHENOL] | 52.2 (≈ 389 µM) | 21.7 (≈ 162 µM) | 31.3 (≈ 233 µM) |  |  |  |
| CC(C)NC(=O)N1CC(=O)N(c2cc(Cl)cc(Cl)c2)C1=O [IPRODIONE] |  |  |  | 48.9 (≈ 148 µM) | 56 (≈ 169 µM) | 58.6 (≈ 177 µM) |
